Key:
HUVEC = assay: Cytotoxicity against HUVEC assessed as effect on cell viability up to 100 uM after 24 hrs by WST1 assay; format: cell-based; conditions: human
MCF7 = assay: Cytotoxicity against human MCF7 cells assessed as effect on cell viability up to 100 uM after 24 hrs by WST1 assay; format: cell-based; conditions: mcf7, 24 h

Compound | Activity (HUVEC) | Activity (MCF7)
COC(=O)[C@]1(C)CCC[C@]2(C)c3cc4oc(C)nc4cc3C[C@@H](O)[C@@H]12 | Non-Toxic | Non-Toxic
CCOC(=O)[C@]1(C)CCC[C@]2(C)c3cc4occc4cc3C[C@@H](O)[C@@H]12 | Non-Toxic | Non-Toxic

Reference: ChEMBL document CHEMBL4190167 (Medchemcomm, 2016)
